Assay results from PMC4685272 (Scientific Reports, 2015).
“Also recorded” adds a separate entry of the source. Where two headings read alike, the source gives them in different places. Where a SMILES comes first, the peptide text is derived from it. Bridges are numbered along the chain shown (N, C = ends). Where no end group is shown, it is not given here.

What was measured:
CD98_103-630 = target: T1, CD98_103-630 (Homo sapiens, UniProt P08195); assay: SPR binding to immobilized CD98_103-630; conditions: for Koff1 / Koff2 / Kon2: 25 °C, immobilized CD98_103-630; for Kon1: Biacore T200, 25 °C, HBS-EP pH 7.4, immobilized CD98_103-630
T1 construct: GST-CD98 (102-630) and the truncated GST-CD98 (304-414); purchased Novus Biologicals, Littleton, CO
T1 sequence (P08195 102-630 isoform P08195-1): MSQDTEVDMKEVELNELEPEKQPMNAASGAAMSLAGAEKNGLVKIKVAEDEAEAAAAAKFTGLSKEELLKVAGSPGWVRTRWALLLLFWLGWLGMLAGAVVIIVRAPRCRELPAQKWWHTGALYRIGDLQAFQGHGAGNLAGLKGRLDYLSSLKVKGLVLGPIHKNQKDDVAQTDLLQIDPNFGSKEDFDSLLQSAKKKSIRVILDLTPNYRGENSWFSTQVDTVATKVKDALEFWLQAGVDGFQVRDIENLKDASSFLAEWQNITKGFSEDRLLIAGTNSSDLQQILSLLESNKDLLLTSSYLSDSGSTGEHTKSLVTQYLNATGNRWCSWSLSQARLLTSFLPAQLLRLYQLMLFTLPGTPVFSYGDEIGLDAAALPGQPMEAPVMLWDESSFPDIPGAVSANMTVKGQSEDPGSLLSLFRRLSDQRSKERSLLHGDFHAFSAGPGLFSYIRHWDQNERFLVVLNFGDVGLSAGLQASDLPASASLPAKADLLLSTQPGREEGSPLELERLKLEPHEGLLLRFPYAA
Experimental: (§1) Surface Plasmon Resonance experiments were performed as previously described. For details, see SI. […]
(§2) Surface Plasmon resonance. Surface Plasmon resonance (SPR) experiments were performed using a Biacore T200 system (GE Healthcare, Uppsala, Sweden), at 25 °C . Binding assays were carried out between various CD98 sequences and both reduced and oxidized HBD3. The residue numbering […]
(§3) (Novus Biologicals, Littleton, CO) were immobilized on a CM4 and/or a CM5 sensor chip (research grade) by the standard amine coupling procedure, using HBS-EP buffer (HEPES 10 mM, NaCl 150 mM, EDTA 3 mM, Surfactant P20 0.005%, pH 7.4), as running buffer. CD98 was immobilized through activation of the sensor chip with 60 µL of N-hydroxysuccinimide and N-ethyl-N-(dimethylaminopropyl)-carbodiimide at 10 µL min-1, followed by a 30 µL injection of protein diluted in 10 mM sodium acetate buffer, pH 4.0. Unreacted activated groups were blocked by a 60 µL injection of 1 M ethanolamine at 10 µL min-1. The final amount of immobilized CD98 was typically between ~ 1500 and 5000 RU, corresponding to a protein concentration of 15 ÷ 50 mg/mL on the surface layer. Subsequently, the peptides or full-length HBD3 were injected at various concentrations (100 nM–100 µM), using HBS-EP as running buffer. The binding assays were performed under previously optimized conditions14, i.e. a contact time of 120 s, a dissociation time of 1000 s, and a flow rate of 30 µL min-1.
(§4) The SPR sensorgrams were analyzed by curve-fitting using the Biacore T200 Evaluation software.
(§5) Dose response curves were plotted using the SPR sensorgrams and the corresponding fit. Various

CD98_304-414 = target: T2, CD98_304-414 (Homo sapiens, UniProt P08195); assay: SPR binding to immobilized CD98_304-414; conditions: 25 °C
T2 construct: GST-CD98 (102-630) and the truncated GST-CD98 (304-414); purchased Novus Biologicals, Littleton, CO
T2 sequence (P08195 304-414 isoform P08195-1): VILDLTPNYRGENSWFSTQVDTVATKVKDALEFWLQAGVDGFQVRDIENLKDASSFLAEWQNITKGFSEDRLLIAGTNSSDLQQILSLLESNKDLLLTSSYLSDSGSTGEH
Experimental: as §1, §2, §3, §4, §5

HSV-1 = assay: HSV infectivity on Vero cell monolayers (plaque count); assay type: cell-based, Herpes simplex virus; conditions: for IC50: read-out: concentration showing 50% inhibition
Experimental: The antiviral activity of the γ-core peptides γ and ε in oxidized and reduced form was evaluated, in comparison with reduced HBD3, against HIV and HSV. To establish in which phase, if any, the peptides inhibit virus infectivity, we performed experiments in four conditions: a) peptides incubated with the virus before being added to the target cells (“virus pre-treatment”), b) peptides incubated with the cells before exposure to the virus (“cell pre-treatment”), c) simultaneous addition of peptides and virus to the target cells (“co-treatment”), and d) peptides added to the virus-exposed cells (“post-treatment”).
The antiviral activity of the peptides against human immunodeficiency virus (HIV) and herpes simplex virus (HSV) was measured as previously described. For details, see SI. […]
Antiviral Activity against Herpes Simplex Virus (HSV). Vero cells were grown in Dulbecco’s modified Eagle’s medium (DMEM) supplemented with 10% fetal calf serum. HSV-1 carrying a lacZ gene driven by the cytomegalovirus (CMV) IE-1 promoter to express beta-galactosidase was propagated as described elsewhere12. All experiments were conducted in parallel with no-peptide controls. The effect of peptides on the inhibition of HSV infectivity on cell monolayers13 was assessed as follows: (i) For “co-exposure” experiments, the cells were incubated with increasing concentrations of the peptides (1, 5, 10, 20, 50, 100 and 150 µM) and with the viral inoculum for 45 min at 37°C. Non -penetrated viruses were inactivated by citrate buffer at pH 3.0. Monolayers were fixed, stained with 5-bromo-4-chloro-3-indolyl-beta-D-galactopyranoside (X-gal) and plaque […]
numbers were scored. Experiments were performed in triplicate and the % inhibition was calculated vs. the no-peptide control; (ii) For “virus pre-exposure” experiments, approximately 2 x 10^4 PFU of HSV-1 were incubated with increasing concentrations of the peptides for 45 min at 37°C, then titrated on Vero cell monolayers; iii) For “cell pre-exposure” experiments, Vero cells were incubated with increasing concentrations of the peptides for 30 min at 4°C, and infected with serial dilutions of HSV-1 for 45 min at 37°C; and iv) For “po st-exposure” experiments, Vero cell monolayers were incubated with virus for 45 minutes at 37°C and afterwards the peptides were added to the inoculum, followed by an additional incubation period of 30 minutes at 37°C. […]

[1] = tested on: elastolytic protease cathepsins; conditions: cited from earlier work
Excerpt: We asked whether the γ-core motif within HBDs represents a primordial HDP that evolved into the full-length molecules of today. To answer the question, we analyzed the structural and biological properties of the β-hairpin peptide of HBD3, which is the smallest substructure encompassing the γ-core motif (Fig. 1B).

[2] = cited from earlier work
[3] = tested on: elastolytic protease cathepsins; conditions: cited from earlier work; remark: listed apart in the source
human serum = conditions: up to 60 min
[4] = human serum from an healthy donor [240 µl 20% (v/v) in PBS]; conditions: 37 °C, up to 24 h
[5] = Oxidative folding (disulfide formation) in Tris HCl pH 7.5; assay type: physicochemical; conditions: Tris HCl 100 mM pH 7.5, open vessel, RP-HPLC-ESI-MS after iodoacetamide alkylation
Experimental: Reduced HBD3 was dissolved in Tris HCl 100 mM pH 7.5 (final peptide concentration 0.5 mg/mL) and shaken in an open vessel, with periodic withdrawal of aliquots. After alkylation of the free thiol groups with iodoacetamide solution, 100 μg of each the aliquot were analysed through RP-HPLC-ESI-MS to evaluate the oxidation status. The remaining 200 μg were purified via RP-HPLC to eliminate excess iodoacetamide, lyophilized, and subjected to tryptic digestion. Tryptic fragments were then indentified through RP-HPLC-ESI-MS. The same procedure, except tryptic digestion, was used for peptides γ and ε. Full details are given in the SI.

In the case of “human β-defensin 3 (GIINTLQKYYCRVRGGRCAVLSCLPKEEQIGKCSTRGRKCCRRKK; not fully specified (bridges); cysteine pairing not given here; UniProt P81534 23-67, looked up) [HBD3, reference compound]”, the Koff1 (CD98_103-630) is reported as 2.10 ± 0.03 ×10^−2 s^−1, the Koff2 (CD98_103-630) is reported as 1.930 ± 0.03 ×10^−3 s^−1 and the Kon2 (CD98_103-630) is reported as 9.03 ± 0.06 x10^−3 s^−1. The Kon1 (CD98_103-630) was 8.51 ± 0.05 ×10^3 M^−1s^−1, the Koff1 (CD98_304-414) was 1.26 ± 0.03 ×10^−2 s^−1 and the Koff2 (CD98_304-414) was 0.907 ± 0.007 ×10^−3 s^−1. The Kon1 (CD98_304-414) was 4.65 ± 0.07 ×10^3 M^−1s^−1, the Kon2 (CD98_304-414) was 5.44 ± 0.06 x10^−3 s^−1 and the IC50 (HSV-1; cell pre-treatment) was 10 µM. The IC50 (HSV-1; co-exposure) was 10 µM, the “efficacy against HSV in words” value (HSV-1; post-exposure / post-treatment conditions) was “no efficacy” and the IC50 (HSV-1; virus pre-exposure) was 20 µM. The “degradation by cathepsins in words” value [1] was “rapidly degraded” and the “stability in human serum in words” value [2] was “highly stable”.

For “GIINTLQKYYCRVRGGRCAVLSCLPKEEQIGKCSTRGRKCCRRKK”, the not cleaved (plasma) is listed as “stable in plasma” and the fragment found [3] is listed as “the sequence from 22 to 45 amino acids residues of HBD3”.

In the case of Ac-CLPKEEQIGKSSTRGRKSCRRKK-NH2, the fragment found (human serum) is reported as “disulfide-bridged form (oxidized peptide γ)” and the cleaved bond [4] is reported as “Arg20-Arg21, 6 h; also recorded: Lys22-Lys23, 6 h; also recorded: Cys19-Arg20, 6 h”.

With Ac-CLPKEEQIGKSSTRGRKSC-NH2 the not cleaved [4] was “found intact after 24 h incubation”.

For [S^33,40]HBD3_23–41 [Peptide ε], the Koff1 (CD98_103-630) was 5.48 ± 0.03 ×10^−2 s^−1, the Koff2 (CD98_103-630) was 0.128 ± 0.04 ×10^−3 s^−1 and the Kon2 (CD98_103-630) was 1.24 ± 0.04 x10^−3 s^−1. The Kon1 (CD98_103-630) was 0.73 ± 0.02 ×10^3 M^−1s^−1, the “fold lower affinity for CD98 than HBD3” value (CD98_103-630; from Table 1) was 70 fold and the Koff1 (CD98_304-414) was 5.38 ± 0.05 ×10^−2 s^−1. The Koff2 (CD98_304-414) was 0.116 ± 0.06 ×10^−3 s^−1, the Kon1 (CD98_304-414) was 0.71 ± 0.04 ×10^3 M^−1s^−1 and the Kon2 (CD98_304-414) was 5.67 ± 0.05 x10^−3 s^−1.

For `CC[C@H](C)[C@@H]1NC(=O)[C@H](CCC(N)=O)NC(=O)[C@H](CCC(=O)O)NC(=O)[C@H](CCC(=O)O)NC(=O)[C@H](CCCCN)NC(=O)[C@@H]2CCCN2C(=O)[C@H](CC(C)C)NC(=O)[C@H](CO)NC(=O)[C@H](CO)NC(=O)[C@H](CC(C)C)NC(=O)[C@H](C(C)C)NC(=O)[C@H](C)NC(=O)[C@@H](NC(C)=O)CSSC[C@@H](C(N)=O)NC(=O)[C@H](CCCCN)NC(=O)CNC1=O` [peptide δ, [S^23]HBD3_18–33] (Ac-CAVLSSLPKEEQIGKC-NH2; disulfide 1-16), the “oxidation state (intramolecular disulfide) after 3 h” value [5] was “still mostly reduced”.
